Measured values from patent publication US20250034099A1, “BENZOXAZINONE DERIVATIVES” (CHIA TAI TIANQING PHARMACEUTICAL GROUP CO., LTD., priority 2021, published 2025).
Read-outs that look alike come from different tables or passages of the source.

Tests used:
[1] = molecular target: T1, MR (Homo sapiens, UniProt P08235); assay: In vitro evaluation of MR antagonistic activity (HEK293/Gal4/MR cell line, Bright Glo); assay type: cell-based; settings: HEK293/Gal4/MR cells, aldosterone final 1 nmol, 24 h incubation
T1 sequence (P08235 726-984 limits assumed): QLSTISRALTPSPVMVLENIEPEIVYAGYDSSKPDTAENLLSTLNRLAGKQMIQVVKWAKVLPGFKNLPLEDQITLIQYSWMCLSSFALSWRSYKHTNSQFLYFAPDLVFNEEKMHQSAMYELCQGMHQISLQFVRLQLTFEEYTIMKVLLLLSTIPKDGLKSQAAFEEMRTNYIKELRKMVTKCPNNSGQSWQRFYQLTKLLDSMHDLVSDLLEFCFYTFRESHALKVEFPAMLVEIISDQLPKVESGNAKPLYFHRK
Experimental: Purpose of Experiment: to assay the MR antagonistic activity of the compounds
A DMEM medium purchased from BI; fetal bovine serum purchased from Biosera; an HEK293/Gal4/MR cell line provided by Wuhan Heyan Biomedical Technology Co., Ltd.; Bright Glo purchased from Promega; and an EnVision multi-marker analyzer (PerkinElmer).
MR cells were seeded in a white 96-well plate, with […] of cell suspension containing 40000 cells added to each well. The cell plate was incubated in a CO2 incubator overnight.
The compounds to be tested were serially 5-fold diluted to the 8th concentration point with a multi-channel pipette, and the compound concentration ranged from 2 mmol to […]. 38 μL of the medium was added to an intermediate plate, and the compound was added to corresponding wells of the intermediate plate at 2 μL/well. After well mixing, the compound solution was transferred to the cell plate at 10 μL/well, and the cell plate was incubated in a CO2 incubator for 1 h. Aldosterone was diluted to 10 nmol with a medium, i.e., 20 μL of aldosterone with a concentration of 1 μmol was added to 1980 μL of the medium. After well mixing, 10 μL of the aldosterone solution was added to each well of the cell plate except the positive control wells. The cell plate was incubated in a CO2 incubator for 24 h. The final concentration of the compound ranged from 10 μmol to 0.128 nmol, and the final concentration of aldosterone was 1 nmol. After the incubation was completed, the cell supernatant was discarded, and the Bright Glo reagent was added to the cell plate at 100 μL/well. Readings were taken immediately on the EnVision multi-marker analyzer.
The original data were converted to inhibition rates using the following equation: % inhibition=((RFUcmpd−AVER(RFUNeg.Ctrl))/((AVER(RFUPos.Ctrl)−AVER(RFUNeg.Ctrl))×100%. Compound curves were fitted by log(inhibitor) vs. response-Variable slope of Graphpad Prism 5. IC50 values were calculated by the software using the following formula: Y=Bottom+(Top−Bottom)/(1+10^((Log IC50−X)×HillSlope)).

[2] = Pharmacokinetic evaluation in rats after IV and PO administration; assay type: in vivo; settings: rat, plasma, male SD rats; for bioavailability / clearance / Vd: IV (1 mg/kg); for bioavailability: read-out: Bioavailability F (%); for clearance: read-out: Clearance CL; for Vd: read-out: Tissue distribution Vdss; for AUC(0-t): read-out: Area under plasma concentration-time curve AUC0-last PO; for Cmax: read-out: Peak concentration Cmax
Experimental: SD rats (male, 7-9 weeks old, Beijing Vital River Laboratory Animal Technology Co., Ltd.)
Pharmacokinetic characteristics of the compounds after intravenous injection (IV) and oral administration (PO) in rodents were tested by a standard scheme. The rats were subjected to intravenous injection and oral administration once in the experiment. […]. The vehicle for the intravenous injection was a clear solution of 80% polyethylene glycol 400/20% water, and the vehicle for the oral administration was a homogeneous suspension of 99.9% (0.5% HPMC:Solutol HS15=95:5)/0.1% Tween 80. Four male SD rats were used in this project. Two rats were subjected to intravenous injection, and plasma samples were collected at 0 h (before administration) and 0.083, 0.25, 0.5, 1, 2, 4, 8 and 24 h (after administration); the other two rats were subjected to oral intragastric administration, and plasma samples were collected at 0 h (before administration) and 0.25, 0.5, 1, 2, 4, 8, and 24 h (after administration). Whole blood samples within 24 h were collected. All blood samples were immediately transferred to labeled commercial centrifuge tubes containing K2-EDTA. After blood sample collection, the plasma supernatant was taken by centrifugation at 3200 g at 4° C. for 10 min, immediately placed in dry ice, and then stored at −60° C. or a lower temperature for LC-MS/MS analysis. Plasma concentration-time data were analyzed by a non-compartmental model using a WinNonlin software package (Version 6.3 and above), and pharmacokinetic parameters such as peak concentration (Cmax), clearance (CL), tissue distribution (Vdss), area under plasma concentration-time curve (AUC0-last), bioavailability (F) and the like were calculated.

[3] = system: nuclear receptor; settings: background statement; cited from earlier work

| Structure (SMILES) | IC50 [1] [nM] | further results |
| --- | --- | --- |
| CNC(=O)CC1COc2cc(F)cc(F)c2N1Cc1cc(C)c2c(c1)NC(=O)CO2 (single isomer, unassigned) [Compound 8a] | 130 |  |
| Cc1noc(CC2COc3cc(F)ccc3N2C(C)c2ccc3c(c2)NC(=O)CO3)n1 (single isomer, unassigned) [Compound 35a] | 251 |  |
| Cc1noc(CC2COc3cc(F)ccc3N2C(C)c2ccc3c(c2)NC(=O)CO3)n1 (single isomer, unassigned) [Compound 35b] | 76.6 |  |
| Cc1c(CN2c3c(F)cc(F)cc3OCC2CC(N)=O)ccc2c1NC(=O)CO2 (single isomer, unassigned) [Compound 42a] | 29.1 | bioavailability ([2]; PO (10 mg/kg)): 34.6%; clearance [2]: 24.4 mL/min/kg; Vd [2]: 1.57 L/kg; AUC(0-t) ([2]; PO (10 mg/kg)): 5.93 µM·h; Cmax ([2]; PO (10 mg/kg)): 2.74 µM |
| NC(=O)CC1COc2cc(F)cc(F)c2N1Cc1ccc2c(c1Cl)NC(=O)CO2 (single isomer, unassigned) [Compound 43a] | 18 |  |
| CNC(=O)CC1COc2cc(F)ccc2N1Cc1cc(Cl)c2c(c1)NC(=O)CO2 (stereo not shown) [Compound 4] | 289 |  |
| CNC(=O)CC1COc2cc(F)cc(F)c2N1Cc1ccc2c(c1)NC(=O)CO2 (stereo not shown) [Compound 5] | 325 |  |
| CNC(=O)CC1COc2cc(F)ccc2N1C(C)c1ccc2c(c1)NC(=O)CO2 (stereo not shown) [Compound 6] | 273 |  |
| CS(=O)(=O)CC1COc2cc(F)ccc2N1Cc1ccc2c(c1)NC(=O)CO2 (stereo not shown) [Compound 7] | 519 |  |
| CCNC(=O)C[C@H]1COc2cc(F)ccc2N1Cc1ccc2c(c1)NC(=O)CO2 [Compound 9] | 403 |  |
| Cc1noc(C[C@H]2COc3cc(F)ccc3N2Cc2cc(Cl)c3c(c2)NC(=O)CO3)n1 [Compound 10] | 15 |  |
| Cc1noc(C[C@H]2COc3cc(F)ccc3N2Cc2ccc3c(c2)NC(=O)CO3)n1 [Compound 12] | 27 |  |
| Cc1nnn(C[C@H]2COc3cc(F)ccc3N2Cc2ccc3c(c2)NC(=O)CO3)n1 [Compound 14] | 78 |  |
| O=C1COc2ccc(CN3c4ccc(F)cc4OC[C@@H]3Cc3nc(CO)no3)cc2N1 [Compound 15] | 107 |  |
| Cc1noc(C[C@H]2COc3cc(F)ccc3N2Cc2cc(F)c3c(c2)NC(=O)CO3)n1 [Compound 18] | 62 |  |
| Cc1noc(C[C@H]2COc3cc(F)ccc3N2Cc2cc3c(cc2F)OCC(=O)N3)n1 [Compound 19] | 66 |  |
| O=C1COc2cc(F)c(CN3c4ccc(F)cc4OC[C@@H]3Cn3nccn3)cc2N1 [Compound 20] | 27 |  |

| Structure (SMILES) | IC50 [1] [nM] | further results |
| --- | --- | --- |
| O=C1COc2ccc(CN3c4ccc(F)cc4OC[C@@H]3Cn3nccn3)cc2N1 [Compound 21] | 50 |  |
| Cc1noc(C[C@H]2COc3cc(F)ccc3N2Cc2ccc3c(c2F)NC(=O)CO3)n1 [Compound 22] | 9 |  |
| [2H]C([2H])(c1ccc2c(c1)NC(=O)CO2)N1c2ccc(F)cc2OC[C@@H]1Cc1nc(C)no1 [Compound 23] | 29 |  |
| Cc1nnn(C[C@H]2COc3cc(F)ccc3N2Cc2cc3c(cc2F)OCC(=O)N3)n1 [Compound 24] | 32 |  |
| Cc1nc(C[C@H]2COc3cc(F)ccc3N2Cc2cc(Cl)c3c(c2)NC(=O)CO3)no1 [Compound 25] | 72 |  |
| Cn1nnc(C[C@H]2COc3cc(F)ccc3N2Cc2cc(Cl)c3c(c2)NC(=O)CO3)n1 [Compound 26] | 32 |  |
| Cn1nnc(C[C@H]2COc3cc(F)ccc3N2Cc2ccc3c(c2)NC(=O)CO3)n1 [Compound 27] | 80 |  |
| [2H]C([2H])([2H])c1noc(C[C@H]2COc3cc(F)ccc3N2Cc2ccc3c(c2)NC(=O)CO3)n1 [Compound 28] | 35 |  |
| [2H]C([2H])([2H])c1noc(C[C@H]2COc3cc(F)ccc3N2Cc2cc3c(cc2F)OCC(=O)N3)n1 [Compound 29] | 22 |  |
| Cn1nnc(C[C@H]2COc3cc(F)ccc3N2Cc2cc3c(cc2F)OCC(=O)N3)n1 [Compound 30] | 68 |  |
| O=C1COc2ccc(CN3c4ccc(F)cc4OC[C@@H]3Cc3c[nH]nn3)c(F)c2N1 [Compound 32] | 50.8 |  |
| Cn1nnc(C[C@H]2COc3cc(F)ccc3N2Cc2ccc3c(c2F)NC(=O)CO3)n1 [Compound 33] | 11 |  |
| [2H]C([2H])([2H])n1nnc(C[C@H]2COc3cc(F)ccc3N2Cc2ccc3c(c2)NC(=O)CO3)n1 [Compound 34] | 130 |  |
| Cc1noc(C[C@H]2COc3cc(F)ccc3N2Cc2ccc3c(c2C)NC(=O)CO3)n1 [Compound 36] | 13.7 | bioavailability ([2]; PO (100 mg/kg)): 64.9%; clearance [2]: 82.6 mL/min/kg; Vd [2]: 6.96 L/kg; AUC(0-t) ([2]; PO (100 mg/kg)): 29.9 µM·h; Cmax ([2]; PO (100 mg/kg)): 5.62 µM |
| Cc1c(CN2c3ccc(F)cc3OC[C@@H]2Cc2nnn(C)n2)ccc2c1NC(=O)CO2 [Compound 37] | 43.9 | bioavailability ([2]; PO (100 mg/kg)): 142%; clearance [2]: 47.9 mL/min/kg; Vd [2]: 4.75 L/kg; AUC(0-t) ([2]; PO (100 mg/kg)): 116 µM·h; Cmax ([2]; PO (100 mg/kg)): 18.9 µM |
| Cn1nnc(C[C@H]2COc3cc(F)ccc3N2Cc2ccc3c(c2Cl)NC(=O)CO3)n1 [Compound 38] | 22.6 |  |
| CC(=O)S[C@@H]1CC2=CC(=O)CC[C@]2(C)[C@H]2CC[C@@]3(C)[C@@H](CC[C@@]34CCC(=O)O4)[C@H]12 [spironolactone] |  | nuclear receptor selectivity [3]: poor |
